Series [1] is described as follows: Impact of IV chelator on blood pressure and heart rate in normotensive rats. In kind it is in vivo, Sprague Dawley rats. The method, then: Owing to the profound impact that DFO administered IV can have on blood pressure and cardiac function (Whitten, D. F.; Gibson, G. W.; Good, M. H.; Goodwin, J. F.; Brough, A. J. Studies in Acute Iron Poisoning. I. Desferrioxamine in the Treatment of Acute Iron Poisoning: Clinical Observations, Experimental Studies, and Theoretical Considerations. Pediatrics 1965, 36, 322-335), the manufacter recommends that the drug be given by this route at doses not to exceed 15 mg/kg/h (22 μmol/kg/h). In addition, patients suffering from acute iron toxicity should be given DFO IV only under circumstances of cardiovascular collapse, and even then at doses not to exceed 15 mg/kg/h for the first 1000 mg. Subject IV dosing, if needed, must be at a slower rate not to exceed 125 mg/h. Upon consideration of this, this example compares the impact of DFO and NaHBED administered IV on blood pressure and heart rate in normotensive rodents. The chelators were administered at a dose of 300 μmol/kg in a 0.5-ml volume either by IV bolus (n=5 for both drugs) or by IV infusion over a 20-min period (n=5 for NaHBED, n=4 for DFO) in accordance with the following procedure.
The basic procedure has been described in an earlier publication (Bergeron, R. J.; Wiegand, J.; Sninsky, C. A.; Katovich, M. J. The Impact of Polyamine Analogues on the Blood Pressure of Normotensive and Hypertensive Rats. Clin. Exp. Hypertension 1995, 17, 1197-1217). Briefly, normotensive adult male Sprague Dawley rats (400 g) were anesthetized with sodium pentobarbital (55 mg/kg IP). After the neck and shoulder areas were prepared for surgery, an incision was made into the neck area. The proximal end of the carotid artery was tied off with 3-0 silk; the other end was clamped. Once a piece of PE-50 tubing was inserted approximately 3 cm into the artery and tied into place; the tubing was skin tunneled to the shoulder area. The jugular vein was cannulated using a similar procedure. Both of the tubings were flushed with heparin (100 U/ml); a stylet was inserted.
Approximately 24 h after the surgery, the animals were placed into individual cages and were connected to a blood pressure transducer (ADInstrurnents, Inc., Milford, MA) via the carotid catheter. […]
After a ½-h stabilization period, 0.5 ml of saline was administered as an IV bolus via the jugular vein catheter, and the blood pressure and heart rate were monitored for 5 min. […] The blood pressure and heart rate readings were taken for 1 h post-drug, during which the animals were unrestrained.
Rats receiving the drug as a 20-min IV infusion (n=5 for HBED, n=4 for DFO) were allowed to acclimate as above. […] Blood pressure and heart rate were monitored during the infusion and for one hour thereafter.

For series [2], the system named is iron loaded Cebus apella monkey. As to the kind of experiment: Iron-balance study (iron clearing efficiency) in iron-loaded Cebus apella monkeys.
Experimental: After intramuscular anesthesia with ketamine, an intravenous infusion is started in a leg vein. […] Two to three infusions, separated by between 10 and 14 days, may be necessary to provide about 500 mg iron per Kg body weight. […] At least twenty half-lives, sixty days, passes before using any of the animals in experiments evaluating iron-chelating agents.
Seven days before the administration of the drug, the animals are placed in metabolic cages and started on a low-iron liquid diet. The monkeys are maintained on the low-iron liquid diet for the duration of the experiment. They are given food according to their body weight, and intake is very carefully monitored.
Three days prior to drug administration, day −2 to day 0, baseline iron intake and output values are measured. This same measurement is made for day +1 to day +3. The total amount of iron intake is compared with the total amount of iron excreted.
Fecal and urine samples are collected at 24 hour intervals. The collections begin four days prior to the administration of the test drug and continue for an additional five days after the drug is given. Fecal samples are assayed for the presence of occult blood, weighed, and mixed with distilled deionized water prior to autoclaving for 30 minutes. The mixture is then freeze-dried, and a known portion of the powder is mixed with low-iron nitric acid and refluxed for 24 hours. Once any particulate matter in the digested samples is removed by centrifugation, iron concentrations are determined by flame atomic absorption. Monkey urine samples are acidified and reconstituted to initial volume after sterilization, if necessary.
The monosodium salt of HBED in distilled H2O was given to the monkeys intravenously (IV) at a single dose of 75 μmol/kg (34.6 mg/kg n=4).
For series [3] the following is noted: IV bolus, conscious rats, 200-300 mg/kg.
The conditions of series [4]: typical, parenteral therapy; cited from earlier work.
Series [5] concerns iron loaded Cebus apella monkey. To be noted: Cebus apella monkey screen, DFOM subcutaneous (Bergeron et al. 1993; Peter et al. 1994); cited from earlier work.
The conditions of series [6]: given orally to human patients; cited from earlier work.
The mark [7] stands for this setting: 300 μmol/kg, 20-min IV infusion.
Setting [8] is: IV push, single dose 75 μmol/kg.

Molecules are shown by their SMILES. Where a name gives a salt, the structure may show the parent alone. Bounds are passed on as bounds.

As for `O=C(O)CN(CCN(CC(=O)O)Cc1ccccc1O)Cc1ccccc1O` [HBED monosodium salt, N,N′-bis(2-hydroxybenzyl)-ethylenediamine-N,N′-diacetic acid], in series [1] (300 μmol/kg IV bolus), the “effect on blood pressure” value is given as “no effect” and the “effect on heart rate” value was “no effect”. For the same compound, in series [1] (setting [7]), the “effect on blood pressure” value is reported as “no effect” and the “effect on heart rate” value is “no effect”. The “net iron excretion relative to similar doses of subcutaneous DFOM” value in series [2] (IV push 75 μmol/kg vs subcutaneous DFOM) was “nearly three times”. Moreover, in series [2] (setting [8]), the “share of excreted iron in the stool” value is 70% and the “share of excreted iron in the urine” value is 30%. Also, in series [3], the side-effects result is given as “no apparent side-effects”.
On to `CC(=O)N(O)CCCCCNC(=O)CCC(=O)N(O)CCCCCNC(=O)CCC(=O)N(O)CCCCCN` [DFO, deferoxamine B], for which the “share of the compound administered that binds iron” value in series [4] is not above 5%. In series [5], the “activity compared with HBED or its dimethyl ester given orally” value is “significantly higher activity”.
For the compound `O=C(O)CN(CCN(CC(=O)O)Cc1ccccc1O)Cc1ccccc1O` [HBED, N,N′-bis(2-hydroxybenzyl)-ethylenediamine-N,N′-diacetic acid], the iron excretion level entry in series [6] is “ineffective for the treatment of iron overload”.
